Data taken from PubChem BioAssay AID248 (DTP/NCI, 2004).
Inconclusive results and toxic doses are left out. No stated cut-off is given here; in the data, active means T/C of 150% or more; inactive means T/C below 125%.

Tested on: L1210 leukemia ip in BDF1 mice, survival T/C
Assay: NCI In Vivo Anticancer Drug Screen. Data for tumor model L1210 Leukemia (intraperitoneal) in B6D2F1 (BDF1) mice
Details: endpoint: mean survival time, higher = longer survival
In short: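 Each compound was tested against a transplantable tumor grown in mice. The endpoint was survival, with treated animals benchmarked against vehicle controls as a simple ratio.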

[1] = dose: 100.0 mg/kg/injection, schedule: Q04DX002 (ip), vehicle: Klucel (hydroxypropylcellulose) (HPC)
[2] = dose: 200.0 mg/kg/injection, schedule: Q04DX002 (ip), vehicle: Klucel (hydroxypropylcellulose) (HPC)

Measured: T/C

O=C(COc1cccc(Cl)c1Cl)Nc1cccnc1
inactive: dose: 100.0 mg/kg/injection, schedule: Q04DX003 (ip), vehicle: saline with Tween-80 102 % of control | dose: 200.0 mg/kg/injection, schedule: Q04DX003 (ip), vehicle: saline with Tween-80 96 % of control | dose: 400.0 mg/kg/injection, schedule: Q04DX003 (ip), vehicle: saline with Tween-80 98 % of control

NNC(=O)CNc1ccc(F)cc1
inactive: [1] 105 % of control | [2] 114 % of control

O=c1cc(Sc2ccccc2)[nH]c(=O)[nH]1
inactive: dose: 100.0 mg/kg/injection, schedule: Q04DX003 (ip), vehicle: Klucel (hydroxypropylcellulose) (HPC) 96 % of control | dose: 200.0 mg/kg/injection, schedule: Q04DX003 (ip), vehicle: Klucel (hydroxypropylcellulose) (HPC) 105 % of control | dose: 400.0 mg/kg/injection, schedule: Q04DX003 (ip), vehicle: Klucel (hydroxypropylcellulose) (HPC) 102 % of control

CCOC(=O)c1c[n]([Hg][n]2cc(C(=O)OCC)c(Nc3ccccc3Cl)nc2=O)c(=O)nc1Nc1ccccc1Cl
inactive: dose: 3.0 mg/kg/injection, schedule: Q01DX009 (ip), vehicle: saline with Tween-80 96 % of control | dose: 6.0 mg/kg/injection, schedule: Q01DX009 (ip), vehicle: saline with Tween-80 96 % of control | dose: 12.0 mg/kg/injection, schedule: Q01DX009 (ip), vehicle: saline with Tween-80 95 % of control | dose: 12.5 mg/kg/injection, schedule: Q04DX003 (ip), vehicle: saline with Tween-80 100 % of control

C1=NC(c2ccccc2)=CN(C2CCCCCCC2)C1(c1ccccc1)C1CCCCCCC1 (stereo not given)
inactive: dose: 50.0 mg/kg/injection, schedule: Q04DX002 (ip), vehicle: saline 99 % of control | [1] 95 % of control | dose: 100.0 mg/kg/injection, schedule: Q04DX002 (ip), vehicle: saline 99 % of control | [2] 92 % of control | dose: 400.0 mg/kg/injection, schedule: Q04DX002 (ip), vehicle: Klucel (hydroxypropylcellulose) (HPC) 92 % of control

CC(=O)CC(=O)OCC1COCO1 (stereo not given)
inactive: dose: 222.0 mg/kg/injection, schedule: Q01DX Z (ip), vehicle: methylcellulose (MC) 104 % of control | dose: 333.0 mg/kg/injection, schedule: Q01DX Z (ip), vehicle: methylcellulose (MC) 95 % of control | dose: 500.0 mg/kg/injection, schedule: Q01DX Z (ip), vehicle: methylcellulose (MC) 107 % of control
